The text below walks through data of ChEMBL document CHEMBL2390860, “Chemical constituents from Nelumbo nucifera leaves and their anti-obesity effects” (Bioorg Med Chem Lett, 2013).

Activity calls are given as the source filed them. The calls are words filed in the database; no cut-off is given here.

The target of experiment [1] is T1, Pancreatic triacylglycerol lipase (Sus scrofa) (UniProt P00591).
T1 sequence (whole entry): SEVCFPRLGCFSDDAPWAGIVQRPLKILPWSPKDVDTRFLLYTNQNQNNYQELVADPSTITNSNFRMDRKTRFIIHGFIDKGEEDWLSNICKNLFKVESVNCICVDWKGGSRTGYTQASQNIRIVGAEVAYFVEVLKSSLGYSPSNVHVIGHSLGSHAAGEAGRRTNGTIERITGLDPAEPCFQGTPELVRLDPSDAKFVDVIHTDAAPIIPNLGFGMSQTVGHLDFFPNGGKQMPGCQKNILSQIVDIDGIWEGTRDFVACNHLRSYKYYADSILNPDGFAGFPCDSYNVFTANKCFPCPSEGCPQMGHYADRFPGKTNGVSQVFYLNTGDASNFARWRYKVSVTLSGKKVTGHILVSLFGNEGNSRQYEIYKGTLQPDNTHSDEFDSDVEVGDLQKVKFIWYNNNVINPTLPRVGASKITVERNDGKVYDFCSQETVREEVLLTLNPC
Nature of the experiment: Inhibition of porcine pancreatic lipase using para-nitrophenyl butyrate as substrate at 100 uM by ELISA. (In general: In an ELISA, binding on a coated surface is turned into a signal by an enzyme label.)

In experiment [2] the test system is 3T3-L1. Nature of the experiment: Antiobesity activity in mouse 3T3L1 cells assessed as reduction of fat accumulation at 100 uM by oil Red O staining-based ELISA. The format is functional, cell-based.

For `Oc1cc(O)c2c(c1)O[C@@H](c1ccc(O)c(O)c1)[C@H](O)C2`, the “Lipase inhibition (active/not active)” value in experiment [1] is “Active”.
As for `COc1cc(/C=C/C(=O)NCCc2ccc(O)cc2)ccc1O`, the result in experiment [2] was inactive. Further, the “Lipase inhibition (active/not active)” value in experiment [1] is “Active”.
With `CC(=O)/C=C/[C@H]1C(C)=C[C@H](O[C@@H]2O[C@H](CO)[C@@H](O)[C@H](O)[C@H]2O)CC1(C)C`, the outcome in experiment [2] was inactive. Moreover, the “Lipase inhibition (active/not active)” value in experiment [1] is “inactive”.
In the case of `CC(=O)/C=C/[C@]1(O)[C@@H](C)C[C@@H](O)CC1(C)C`, in experiment [2], the result was inactive. Moreover, the “Lipase inhibition (active/not active)” value in experiment [1] was “inactive”.
On to `O=c1c(O[C@@H]2O[C@H](CO)[C@@H](O)[C@H](O)[C@H]2O)c(-c2ccc(O)c(O)c2)oc2cc(O)cc(O)c12`, for which the result in experiment [2] was Active. Besides, the “Lipase inhibition (active/not active)” value in experiment [1] was “inactive”.
Take `O=C1c2c(O)cc(O)cc2O[C@@H](c2ccc(O)c(O)c2)[C@H]1O`: the result in experiment [2] was Active. Moreover, the “Lipase inhibition (active/not active)” value in experiment [1] is “Active”.
`O=C1c2ccccc2-c2c3c(cc4ccnc1c24)OCO3`: the result in experiment [2] was Active. The “Lipase inhibition (active/not active)” value in experiment [1] is “Active”.
As to `CC1=CC(=O)CC(C)(C)/C1=C/C[C@H](C)O`, in experiment [2], the outcome was inactive. Further, the “Lipase inhibition (active/not active)” value in experiment [1] is “inactive”.
With `COc1cc(/C=C\C(=O)NCCc2ccc(O)cc2)ccc1O`, the result in experiment [2] was inactive. Moreover, in experiment [1], the “Lipase inhibition (active/not active)” value was “Active”.
Consider `CC(=O)/C=C/[C@@]12O[C@]1(C)C[C@@H](O)CC2(C)C`, for which the outcome in experiment [2] was Active. For the same compound, the “Lipase inhibition (active/not active)” value in experiment [1] was “inactive”.
On to `O=c1cc(-c2ccc(O)c(O)c2)oc2cc(O)cc(O)c12`, for which the result in experiment [2] was Active. Further, the “Lipase inhibition (active/not active)” value in experiment [1] is “Active”.
With `CC1=C2C[C@@H](C(C)(C)O[C@@H]3O[C@H](CO)[C@@H](O)[C@H](O)[C@H]3O)CC[C@@]2(C)CCC1=O`, the result in experiment [2] was inactive. The “Lipase inhibition (active/not active)” value in experiment [1] was “inactive”.
For `CC(=O)C=C=C1C(C)(C)C[C@H](O)C[C@]1(C)O`, the result in experiment [2] was inactive. Also, the “Lipase inhibition (active/not active)” value in experiment [1] is “inactive”.
Take `CC1(C)C[C@@H](O)C[C@@]2(C)OC(=O)C=C12`: the outcome in experiment [2] was inactive. The “Lipase inhibition (active/not active)” value in experiment [1] was “inactive”.
Consider `O=C(/C=C/c1ccc(O)cc1)NCCc1ccc(O)cc1`, for which the outcome in experiment [2] was inactive. The “Lipase inhibition (active/not active)” value in experiment [1] was “Active”.
For `O=C(/C=C\c1ccc(O)cc1)NCCc1ccc(O)cc1` the same measures were “inactive” and “Active”.
Take `O=c1c(O)c(-c2ccc(O)cc2)oc2cc(O)cc(O)c12`: in experiment [2], the result was Active. The “Lipase inhibition (active/not active)” value in experiment [1] was “Active”.
Turning to `COc1cc2c3c(c1OC)C1(C=CC(=O)C=C1)C[C@H]3N(C)CC2`, in experiment [1], the “Lipase inhibition (active/not active)” value was “Active”.
On to `CC(=O)/C=C/[C@@]1(O)C(C)=CC(=O)CC1(C)C`, for which the result in experiment [2] was inactive. Moreover, the “Lipase inhibition (active/not active)” value in experiment [1] was “inactive”.
In the case of `CC(=O)/C=C/[C@]12O[C@@]1(C)C[C@@H](O)CC2(C)C`, the outcome in experiment [2] was Active. Further, the “Lipase inhibition (active/not active)” value in experiment [1] is “inactive”.
For `COc1cc(-c2oc3cc(O[C@@H]4O[C@H](CO)[C@@H](O)[C@H](O)[C@H]4O)cc(O)c3c(=O)c2O)ccc1O` the same measures were “Active” and “inactive”.
For the compound `C[N+]1([O-])CCc2cc3c(c4c2[C@H]1Cc1ccccc1-4)OCO3` (some centres undefined), the result in experiment [2] was Active. In addition, in experiment [1], the “Lipase inhibition (active/not active)” value is “Active”.
With `O=c1c(O)c(-c2ccc(O)c(O)c2)oc2cc(O)cc(O)c12`, in experiment [2], the result was Active. Further, in experiment [1], the “Lipase inhibition (active/not active)” value is “Active”.
Turning to `O=C1c2c(O)cc(O)cc2O[C@H](c2ccc(O)c(O)c2)[C@H]1O`, the “Lipase inhibition (active/not active)” value in experiment [1] is “Active”.
With `CC(=O)C=C=C1C(C)(C)C[C@H](O)C[C@@]1(C)O`, the outcome in experiment [2] was inactive. Besides, in experiment [1], the “Lipase inhibition (active/not active)” value was “inactive”.
In the case of `CC1=CC(=O)CC(C)(C)[C@@]1(O)/C=C/[C@@H](C)O`, the result in experiment [2] was inactive. Further, in experiment [1], the “Lipase inhibition (active/not active)” value is “inactive”.
Take `CC(=O)/C=C/[C@@]12O[C@]1(C)C[C@@H](O[C@@H]1O[C@H](CO)[C@@H](O)[C@H](O)[C@H]1O)CC2(C)C`: in experiment [2], the outcome was inactive. Further, the “Lipase inhibition (active/not active)” value in experiment [1] is “inactive”.
For `O=c1c(O[C@@H]2O[C@H](CO)[C@@H](O)[C@H](O)[C@H]2O)c(-c2ccc(O)cc2)oc2cc(O)cc(O)c12`, in experiment [2], the outcome was Active. Moreover, in experiment [1], the “Lipase inhibition (active/not active)” value is “inactive”.
Turning to `Oc1ccc([C@H]2Oc3c(O)c(O)c(O)c(O)c3C[C@@H]2O)cc1O`, the “Lipase inhibition (active/not active)” value in experiment [1] is “Active”.
In the case of `CC(=O)/C=C/[C@H]1[C@H](C)C[C@H](O)CC1(C)C`, in experiment [2], the outcome was inactive. The “Lipase inhibition (active/not active)” value in experiment [1] is “inactive”.
`O=C1CC[C@@H]2c3cc(O)c(O)cc3CCN12`: the “Lipase inhibition (active/not active)” value in experiment [1] was “Active”.
As for `CC(=O)/C=C\[C@@H]1[C@@H](C)C[C@@H](O[C@@H]2O[C@H](CO)[C@@H](O)[C@H](O)[C@H]2O)CC1(C)C`, the outcome in experiment [2] was inactive. For the same compound, the “Lipase inhibition (active/not active)” value in experiment [1] is “inactive”.
